The results in this text go back to patent US20240208909A1, “SUBSTITUTED QUINOLINE DERIVATIVES HAVING SOS1 INHIBITION ACTIVITIES AND USES THEREOF” (Accutar Biotechnology Inc., priority 2022, published 2024).

For one assay, the target named is SOS1/KRAS-G12D (Homo sapiens (Human), UniProt Q07889). The assay is described as follows: SOS1/KRAS-G12D binding inhibition assay (AlphaScreen). To be noted: GST-SOS1 and 6*His KRAS-G12D, read-out: KrasG12D/SOS1 binding IC50. Here is the method: Example 22: SOS1/KRAS-G12D Binding Inhibition Assay
SOS1 binding affinity of candidate compounds was measured by monitoring the interaction of SOS1 with KRAS-G12D in the presence of the test compound. Briefly, 5 nM GST tagged SOS1 proteins (final concentration) were pre-incubated with 50 nM 6*His tagged KRAS-G12D proteins (final concentration) in an assay buffer containing 10 mM HEPES, pH 7.4, 150 mM NaCl, 1 mM DTT, 5 mM MgCl2, 0.1% Tween-20, and 0.05% BSA for 30 minutes. The test compounds in 2% DMSO (final concentration) at various concentrations were then added to the reaction mixture and incubated for another 30 minutes at 4° C. 5 ug/ml GSH AlphaScreen donor beads (PerkinElmer, 6765300) and 5 ug/ml nickel chelate (Ni-NTA) AlphaScreen acceptor beads (PerkinElmer, 6760619C) (final concentrations) were then added to the mixture. After an incubation of 2 hours at 4° C., the fluorescent signals were obtained on the EnVision® 2105 Multilabel Plate Reader (PerkinElmer).
Raw AlphaScreen data were converted to a percentage of inhibition (relative to DMSO) using the following equations: • a) For a given test compound concentration X:
Signal (X)=Signal (SOS1 & KRAS-G12D & compound)-Signal (buffer & KRAS-G12D & compound)
Percentage of inhibition at concentration X=[1−Signal (X)/Signal (DMSO)]*100% b)
The IC50 values were determined by nonlinear regression of plots of [inhibitor] vs. percentage of inhibition with variable slope, analyzed using GraphPad Prism 9.

The subject of assay [1] is Phospho-ERK1/2 in DLD1 cells. Description: Phospho-ERK1/2 expression inhibition in DLD1 cells. The class given is cell-based. Conditions: Homo sapiens, DLD-1, 4 hours, read-out: DLD1 pERK IC50. On the procedure:
Example 23: Phospho-ERK1/2 Expression Inhibition in DLD1 Cells
DLD1 cells were obtained from American Type Culture Collection (ATCC). DLD1 cells were plated in 96-well plates (VWR #10062-900, or Corning #3904) in 90 uL culture medium at a density of 15,000 cells/well in the RPM11640 growth medium containing 10% FBS and 1% Penicillin Streptomycin, and then incubated at 37° C. overnight. The following day, the test compound was administered to the cells by using 1000×x compound stock solution prepared in DMSO at various concentrations. 1000× compound stock solution was first diluted in culturing medium to 10×, then 10 uL compound medium was added to each well in the cell plates. After administration of the compound, the cells were then incubated at 37° C. for 4 hours. Upon completion, the cells were washed with PBS briefly. 150 uL/well of 4% formaldehyde was added and the plates were incubated at room temperature for 20 mins. The cells were washed with PBS briefly, and permeabilized with 150 uL/well of ice cold 100% methanol for 10 mins. The cells were washed with PBS briefly and blocked with 100 uL/well LI-COR blocking buffer for 1 hr at room temperature with gentle shaking. The cells were incubated overnight at 4° C. with 50 uL primary antibody rabbit anti-Phospho-ERK1/2 (1: 500, Cell Signaling, #4370) diluted in Intercept Blocking Buffer (LI-COR, #927-60001) containing 0.1% Tween 20. The next day, the cells were washed with 200 uL PBS containing 0.1% Tween 20, 5×5 mins at room temperature with gentle shaking, and incubated with 50 uL secondary antibody, IRDye® 800CW Goat anti-Rabbit IgG (LI-COR, #926-32211), 1:1000, in LI-COR blocking buffer with 0.2% Tween 20 for 1 hr at room temperature with gentle shaking. The cells were washed with 200 uL PBS containing 0.1% Tween 20, 5×5 mins at room temperature with gentle shaking. The cells were washed with PBS for 5 mins. 100 uL fresh PBS was added to each well and the plates were imaged on a LI-COR Odyssey CLX plate reader.

A further assay deals with K562 cells. The assay is described as follows: Cell growth inhibition of K562 cells (CellTiter-Glo). Conditions: Homo sapiens, 120 h, 5 days. The assay is classed as cell-based. Here is the method:
Example 24: Cell Growth Inhibition of K562 Cells
K562 cells were obtained from American Type Culture Collection (ATCC). For cell growth assay, K562 cells were seeded in 96-well plates at 1000 cells/well in 90 μl of RPM11640 growth medium containing 10% FBS and 1% Penicillin Streptomycin, and then incubated at 37° C. for 1 hour. The test compound was administered to the cells by using 1000× compound stock solution prepared in DMSO at various concentrations. 1000× compound stock solution was first diluted in culturing medium to 10×, then 10 uL compound medium was added to each well in the cell plates. After administration of the compound, the cells were then incubated at 37° C. for 5 days. Upon completion, the plates were equilibrated at room temperature for approximately 10 minutes. 100 ul of CellTiter-Glo® Reagent (Promega) was added to each well. The plates were then incubated at room temperature for 10 minutes and luminescence was recorded by EnSpire plate reader (PerkinElmer).

Chain of SOS1/KRAS-G12D (Q07889 564-1049 limits assumed): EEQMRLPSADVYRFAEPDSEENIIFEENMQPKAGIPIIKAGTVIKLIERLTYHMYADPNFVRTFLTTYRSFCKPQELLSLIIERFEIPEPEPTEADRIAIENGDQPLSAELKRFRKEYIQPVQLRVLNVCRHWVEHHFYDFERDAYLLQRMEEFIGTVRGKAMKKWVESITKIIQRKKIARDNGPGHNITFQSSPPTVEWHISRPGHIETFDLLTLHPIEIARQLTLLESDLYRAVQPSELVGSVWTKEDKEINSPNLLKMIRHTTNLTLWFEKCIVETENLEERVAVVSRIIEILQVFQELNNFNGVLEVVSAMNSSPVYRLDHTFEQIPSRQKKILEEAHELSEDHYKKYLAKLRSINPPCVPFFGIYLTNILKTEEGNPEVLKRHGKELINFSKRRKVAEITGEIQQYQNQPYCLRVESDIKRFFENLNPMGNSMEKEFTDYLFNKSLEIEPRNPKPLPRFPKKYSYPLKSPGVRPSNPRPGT

For the compound `CC(=O)N1CCC(c2ccc3nccc(N[C@H](C)c4cccc(C(F)F)c4F)c3c2)CC1` [Compound 13, (R)-1-(4-(4-((1-(3-(difluoromethyl)-2-fluorophenyl)ethyl)amino)quinolin-6-yl)piperidin-1-yl)ethan-1-one], the results for the IC50 (on SOS1/KRAS-G12D; in assay [1]) were no more than 10 nM and 150 to 500 nM, respectively. The same compound came in with a GI50 in the assay on K562 cells of no more than 100 nM.

For the compound `C[C@@H](Nc1ccnc2ccc(N3CCN(C(=O)[C@H]4CCOC4)CC3)cc12)c1cccc(C(F)F)c1F` [Compound 14, (4-(4-(((R)-1-(3-(difluoromethyl)-2-fluorophenyl)ethyl)amino)quinolin-6-yl)piperazin-1-yl)((S)-tetrahydrofuran-3-yl)methanone], the IC50 was no more than 10 nM at SOS1/KRAS-G12D and 150 to 500 nM in assay [1]. The concentration for 50% growth inhibition (GI50) in the assay on K562 cells was no more than 100 nM.

For the compound `C[C@@H](Nc1ccnc2ccc(N3CCN(C(=O)[C@@H]4CCOC4)CC3)cc12)c1cccc(C(F)F)c1F` [Compound 15, (4-(4-(((R)-1-(3-(difluoromethyl)-2-fluorophenyl)ethyl)amino)quinolin-6-yl)piperazin-1-yl)((R)-tetrahydrofuran-3-yl)methanone], the IC50 is no more than 10 nM on SOS1/KRAS-G12D and no more than 150 nM in assay [1]. The compound also came in with a concentration for 50% growth inhibition (GI50) in the assay with K562 cells of 100 to 500 nM.

In the case of `C[C@@H](Nc1ccnc2ccc(N3CCN(C(=O)C4COC4)CC3)cc12)c1cccc(C(F)F)c1F` [Compound 16, (R)-(4-(4-((1-(3-(difluoromethyl)-2-fluorophenyl)ethyl)amino)quinolin-6-yl)piperazin-1-yl)(oxetan-3-yl)methanone], the IC50 at SOS1/KRAS-G12D was no more than 10 nM; in assay [1] it was no more than 150 nM. This compound also returned a GI50 with K562 cells of no more than 100 nM.

For the compound `CC(C)C(=O)N1CCN(c2ccc3nccc(N[C@H](C)c4cccc(C(F)F)c4F)c3c2)CC1` [Compound 17, (R)-1-(4-(4-((1-(3-(difluoromethyl)-2-fluorophenyl)ethyl)amino)quinolin-6-yl)piperazin-1-yl)-2-methylpropan-1-one], the IC50 was no more than 10 nM at SOS1/KRAS-G12D and no more than 150 nM in assay [1]. Besides, in the assay on K562 cells, the 50% growth inhibitory concentration (GI50) is 100 to 500 nM.

Consider `C[C@@H](Nc1ccnc2ccc(N3CC[C@H](N)C3)cc12)c1cccc(C(F)F)c1F` [Compound 18, 6-((S)-3-aminopyrrolidin-1-yl)-N-((R)-1-(3-(difluoromethyl)-2-fluorophenyl)ethyl)quinolin-4-amine], for which the values for the IC50 (on SOS1/KRAS-G12D; in assay [1]) were 10 to 100 nM and greater than 500 nM, respectively. Moreover, the GI50 in the assay on K562 cells is greater than 500 nM.

Turning to `Cc1c([C@@H](C)Nc2ccnc3ccc(N4CC5CC(C4)O5)cc23)cccc1C(F)(F)F` [Compound 19, 6-(6-oxa-3-azabicyclo[3.1.1]heptan-3-yl)-N-((R)-1-(2-methyl-3-(trifluoromethyl)phenyl)ethyl)quinolin-4-amine], the IC50 is greater than 100 nM at SOS1/KRAS-G12D and greater than 500 nM in assay [1]. This compound gave a GI50 in the assay with K562 cells of 100 to 500 nM.

For `Cc1c([C@@H](C)Nc2ccnc3ccc(N4CC[C@@H](N)C4)cc23)cccc1C(F)(F)F` [Compound 20, 6-((R)-3-aminopyrrolidin-1-yl)-N-((R)-1-(2-methyl-3-(trifluoromethyl)phenyl)ethyl)quinolin-4-amine], the IC50 at SOS1/KRAS-G12D was greater than 100 nM; in assay [1] it was greater than 500 nM. Also, in the assay with K562 cells, the GI50 is greater than 500 nM.

With `Cc1c([C@@H](C)Nc2ccnc3ccc(N4CC5(CCN(C)C5=O)C4)cc23)cccc1C(F)(F)F` [Compound 21, (R)-6-methyl-2-(4-((1-(2-methyl-3-(trifluoromethyl)phenyl)ethyl)amino)quinolin-6-yl)-2,6-diazaspiro[3.4]octan-5-one], the results for the IC50 (at SOS1/KRAS-G12D; in assay [1]) were greater than 100 nM and greater than 500 nM, respectively. This compound also registered a GI50 in the assay on K562 cells greater than 500 nM.

Consider `Cc1c([C@@H](C)Nc2ccnc3ccc(N4C[C@@H]5C[C@H]4CO5)cc23)cccc1C(F)(F)F` [Compound 22, 6-((1S,4S)-2-oxa-5-azabicyclo[2.2.1]heptan-5-yl)-N-((R)-1-(2-methyl-3-(trifluoromethyl)phenyl)ethyl)quinolin-4-amine], for which the IC50 at SOS1/KRAS-G12D is greater than 100 nM; in assay [1], greater than 500 nM. This compound yielded a GI50 in the assay with K562 cells greater than 500 nM.

Consider `Cc1c([C@@H](C)Nc2ccnc3ccc(N4CCC5(CCN(C)C5=O)CC4)cc23)cccc1C(F)(F)F` [Compound 23, (R)-2-methyl-8-(4-((1-(2-methyl-3-(trifluoromethyl)phenyl)ethyl)amino)quinolin-6-yl)-2,8-diazaspiro[4.5]decan-1-one], for which the values for the IC50 (on SOS1/KRAS-G12D; in assay [1]) were 10 to 100 nM and greater than 500 nM, respectively. In the assay on K562 cells, this compound returned a GI50 of 100 to 500 nM.

As to `Cc1c([C@@H](C)Nc2ccnc3ccc(N4CCN(c5cnn(C)c5)CC4)cc23)cccc1C(F)(F)F` [Compound 24, (R)-6-(4-(1-methyl-1H-pyrazol-4-yl)piperazin-1-yl)-N-(1-(2-methyl-3-(trifluoromethyl)phenyl)ethyl)quinolin-4-amine], the values for the IC50 (at SOS1/KRAS-G12D; in assay [1]) were greater than 100 nM and greater than 500 nM, respectively. This compound gave a GI50 with K562 cells of 100 to 500 nM.

Regarding `Cc1c([C@@H](C)Nc2ccnc3ccc(N4CCn5ncnc5C4)cc23)cccc1C(F)(F)F` [Compound 25, (R)-6-(5,6-dihydro-[1,2,4]triazolo[1,5-a]pyrazin-7(8H)-yl)-N-(1-(2-methyl-3-(trifluoromethyl)phenyl)ethyl)quinolin-4-amine], the IC50 at SOS1/KRAS-G12D was greater than 100 nM; in assay [1], 150 to 500 nM. This compound showed a GI50 in the assay with K562 cells of 100 to 500 nM.

On to `Cc1c([C@@H](C)Nc2ccnc3ccc(N4CCN(C(=O)C5CC5)CC4)cc23)cccc1C(F)(F)F` [Compound 26, (R)-cyclopropyl(4-(4-((1-(2-methyl-3-(trifluoromethyl)phenyl)ethyl)amino)quinolin-6-yl)piperazin-1-yl)methanone], for which the IC50 on SOS1/KRAS-G12D was 10 to 100 nM; in assay [1], greater than 500 nM. This compound registered a GI50 with K562 cells of 100 to 500 nM.

For the compound `CC(=O)N1CCN(c2ccc3nccc(N[C@H](C)c4cccc(C(F)(F)F)c4C)c3c2)CC1` [Compound 27, (R)-1-(4-(4-((1-(2-methyl-3-(trifluoromethyl)phenyl)ethyl)amino)quinolin-6-yl)piperazin-1-yl)ethan-1-one], the IC50 at SOS1/KRAS-G12D is 10 to 100 nM; in assay [1], greater than 500 nM. For the same compound, in the assay on K562 cells, the 50% growth inhibitory concentration (GI50) was greater than 500 nM.

Regarding `CNC1CCN(c2ccc3nccc(N[C@H](C)c4cccc(C(F)(F)F)c4C)c3c2)CC1` [Compound 28, (R)-N-(1-(2-methyl-3-(trifluoromethyl)phenyl)ethyl)-6-(4-(methylamino)piperidin-1-yl)quinolin-4-amine], the figures for the IC50 (at SOS1/KRAS-G12D; in assay [1]) were 10 to 100 nM and greater than 500 nM, respectively. Also, in the assay with K562 cells, the GI50 was greater than 500 nM.

`Cc1c([C@@H](C)Nc2ccnc3ccc(N4CCN(C(=O)C5COC5)CC4)cc23)cccc1C(F)(F)F` [Compound 29, (R)-(4-(4-((1-(2-methyl-3-(trifluoromethyl)phenyl)ethyl)amino)quinolin-6-yl)piperazin-1-yl)(oxetan-3-yl)methanone]: the IC50 at SOS1/KRAS-G12D was 10 to 100 nM; in assay [1], greater than 500 nM. Moreover, the GI50 in the assay on K562 cells lay within 100 to 500 nM.
